Laboratory results reported in the NIST ThermoML archive (doi:10.1021/je900596d).
± gives the expanded uncertainty stated by the source.

Details: for mass density: Vibrating tube method

FC(F)=C(F)C(F)(F)F [hexafluoropropene]
Details | mass density [kg/m3] | vapor or sublimation pressure [kPa]
355.18 K, 9543 kPa, Liquid | 1138.93 ± 1.2 | –
355.18 K, 9592.9 kPa, Liquid | 1139.78 ± 1.2 | –
355.18 K, 9645.5 kPa, Liquid | 1140.58 ± 1.2 | –
355.18 K, 9695.7 kPa, Liquid | 1141.39 ± 1.2 | –
355.18 K, 9747.1 kPa, Liquid | 1142.23 ± 1.2 | –
355.18 K, 9796.2 kPa, Liquid | 1143.06 ± 1.2 | –
355.18 K, 9846.2 kPa, Liquid | 1143.79 ± 1.2 | –
355.18 K, 9896.5 kPa, Liquid | 1144.79 ± 1.2 | –
355.18 K, 9947.2 kPa, Liquid | 1145.37 ± 1.2 | –
355.18 K, 9998.1 kPa, Liquid | 1146.19 ± 1.2 | –
355.24 K, Liquid, Closed cell (Static) method | – | 2903 ± 5
355.27 K, 1.7 kPa, Fluid (supercritical or subcritical phases) | 0.1 ± 0.03 | –
355.27 K, 2.5 kPa, Fluid (supercritical or subcritical phases) | 0.14 ± 0.03 | –
355.27 K, 3.1 kPa, Fluid (supercritical or subcritical phases) | 0.19 ± 0.03 | –
355.27 K, 3.6 kPa, Fluid (supercritical or subcritical phases) | 0.23 ± 0.03 | –
355.27 K, 4.8 kPa, Fluid (supercritical or subcritical phases) | 0.28 ± 0.03 | –
355.27 K, 5.8 kPa, Fluid (supercritical or subcritical phases) | 0.37 ± 0.03 | –
355.27 K, 6.4 kPa, Fluid (supercritical or subcritical phases) | 0.38 ± 0.03 | –
355.27 K, 7.6 kPa, Fluid (supercritical or subcritical phases) | 0.44 ± 0.03 | –
355.27 K, 8.8 kPa, Fluid (supercritical or subcritical phases) | 0.47 ± 0.03 | –
355.27 K, 9.4 kPa, Fluid (supercritical or subcritical phases) | 0.5 ± 0.03 | –
355.27 K, 10 kPa, Fluid (supercritical or subcritical phases) | 0.52 ± 0.03 | –
355.27 K, 11.3 kPa, Fluid (supercritical or subcritical phases) | 0.61 ± 0.03 | –
355.27 K, 12.5 kPa, Fluid (supercritical or subcritical phases) | 0.64 ± 0.03 | –
355.27 K, 13.7 kPa, Fluid (supercritical or subcritical phases) | 0.67 ± 0.03 | –
355.27 K, 15 kPa, Fluid (supercritical or subcritical phases) | 0.66 ± 0.03 | –
355.27 K, 16 kPa, Fluid (supercritical or subcritical phases) | 0.83 ± 0.03 | –
355.27 K, 18.5 kPa, Fluid (supercritical or subcritical phases) | 0.93 ± 0.03 | –
355.27 K, 19.9 kPa, Fluid (supercritical or subcritical phases) | 1.04 ± 0.03 | –
355.27 K, 21.2 kPa, Fluid (supercritical or subcritical phases) | 1.09 ± 0.03 | –
355.27 K, 22.2 kPa, Fluid (supercritical or subcritical phases) | 1.15 ± 0.03 | –
355.27 K, 23.4 kPa, Fluid (supercritical or subcritical phases) | 1.24 ± 0.03 | –
355.27 K, 24.5 kPa, Fluid (supercritical or subcritical phases) | 1.28 ± 0.03 | –
355.27 K, 25.7 kPa, Fluid (supercritical or subcritical phases) | 1.37 ± 0.03 | –
355.27 K, 26.7 kPa, Fluid (supercritical or subcritical phases) | 1.39 ± 0.03 | –
355.27 K, 27.9 kPa, Fluid (supercritical or subcritical phases) | 1.42 ± 0.03 | –
355.27 K, 29.2 kPa, Fluid (supercritical or subcritical phases) | 1.46 ± 0.03 | –
355.27 K, 30.3 kPa, Fluid (supercritical or subcritical phases) | 1.62 ± 0.03 | –
355.27 K, 31.3 kPa, Fluid (supercritical or subcritical phases) | 1.64 ± 0.03 | –
355.27 K, 32.3 kPa, Fluid (supercritical or subcritical phases) | 1.71 ± 0.03 | –
355.27 K, 34.6 kPa, Fluid (supercritical or subcritical phases) | 1.82 ± 0.03 | –
355.27 K, 37.4 kPa, Fluid (supercritical or subcritical phases) | 1.95 ± 0.03 | –
355.27 K, 41.7 kPa, Fluid (supercritical or subcritical phases) | 2.14 ± 0.03 | –
355.27 K, 47.8 kPa, Fluid (supercritical or subcritical phases) | 2.49 ± 0.03 | –
355.27 K, 53.6 kPa, Fluid (supercritical or subcritical phases) | 2.8 ± 0.03 | –
355.27 K, 58 kPa, Fluid (supercritical or subcritical phases) | 3.03 ± 0.03 | –
355.27 K, 62.5 kPa, Fluid (supercritical or subcritical phases) | 3.28 ± 0.03 | –
355.27 K, 67.1 kPa, Fluid (supercritical or subcritical phases) | 3.54 ± 0.03 | –
355.27 K, 71.8 kPa, Fluid (supercritical or subcritical phases) | 3.72 ± 0.03 | –
355.27 K, 76 kPa, Fluid (supercritical or subcritical phases) | 4.09 ± 0.03 | –
355.27 K, 80.2 kPa, Fluid (supercritical or subcritical phases) | 4.21 ± 0.03 | –
355.27 K, 84.7 kPa, Fluid (supercritical or subcritical phases) | 4.42 ± 0.03 | –
355.27 K, 89.7 kPa, Fluid (supercritical or subcritical phases) | 4.7 ± 0.03 | –
355.27 K, 94.5 kPa, Fluid (supercritical or subcritical phases) | 4.96 ± 0.03 | –
355.27 K, 99.2 kPa, Fluid (supercritical or subcritical phases) | 5.14 ± 0.03 | –
355.27 K, 108.4 kPa, Fluid (supercritical or subcritical phases) | 5.69 ± 0.03 | –
355.27 K, 121.7 kPa, Fluid (supercritical or subcritical phases) | 6.32 ± 0.03 | –
355.27 K, 136.3 kPa, Fluid (supercritical or subcritical phases) | 7.14 ± 0.03 | –
355.27 K, 150.1 kPa, Fluid (supercritical or subcritical phases) | 7.91 ± 0.04 | –
355.27 K, 175.9 kPa, Fluid (supercritical or subcritical phases) | 9.29 ± 0.04 | –
355.27 K, 189 kPa, Fluid (supercritical or subcritical phases) | 9.98 ± 0.04 | –
355.27 K, 202.9 kPa, Fluid (supercritical or subcritical phases) | 10.67 ± 0.04 | –
355.27 K, 215.8 kPa, Fluid (supercritical or subcritical phases) | 11.37 ± 0.04 | –
355.27 K, 229.6 kPa, Fluid (supercritical or subcritical phases) | 12.15 ± 0.04 | –
355.27 K, 243.8 kPa, Fluid (supercritical or subcritical phases) | 12.89 ± 0.04 | –
355.27 K, 256.5 kPa, Fluid (supercritical or subcritical phases) | 13.54 ± 0.04 | –
355.27 K, 269.4 kPa, Fluid (supercritical or subcritical phases) | 14.27 ± 0.04 | –
355.27 K, 282.8 kPa, Fluid (supercritical or subcritical phases) | 15.02 ± 0.04 | –
355.27 K, 296.5 kPa, Fluid (supercritical or subcritical phases) | 15.74 ± 0.04 | –
355.27 K, 310.2 kPa, Fluid (supercritical or subcritical phases) | 16.52 ± 0.04 | –
355.27 K, 323.9 kPa, Fluid (supercritical or subcritical phases) | 17.3 ± 0.04 | –
355.27 K, 337.3 kPa, Fluid (supercritical or subcritical phases) | 18.03 ± 0.04 | –
355.27 K, 350.9 kPa, Fluid (supercritical or subcritical phases) | 18.72 ± 0.04 | –
355.27 K, 364 kPa, Fluid (supercritical or subcritical phases) | 19.44 ± 0.04 | –
355.27 K, 377.5 kPa, Fluid (supercritical or subcritical phases) | 20.18 ± 0.04 | –
355.27 K, 390.9 kPa, Fluid (supercritical or subcritical phases) | 20.91 ± 0.04 | –
355.27 K, 410.7 kPa, Fluid (supercritical or subcritical phases) | 22.1 ± 0.04 | –
355.27 K, 423.7 kPa, Fluid (supercritical or subcritical phases) | 22.78 ± 0.05 | –
355.27 K, 436.7 kPa, Fluid (supercritical or subcritical phases) | 23.55 ± 0.05 | –
355.27 K, 449.9 kPa, Fluid (supercritical or subcritical phases) | 24.26 ± 0.05 | –
355.27 K, 463 kPa, Fluid (supercritical or subcritical phases) | 25.02 ± 0.05 | –
355.27 K, 475.5 kPa, Fluid (supercritical or subcritical phases) | 25.74 ± 0.05 | –
355.27 K, 489.9 kPa, Fluid (supercritical or subcritical phases) | 26.57 ± 0.05 | –
355.27 K, 511.2 kPa, Fluid (supercritical or subcritical phases) | 27.76 ± 0.05 | –
355.27 K, 534.4 kPa, Fluid (supercritical or subcritical phases) | 29.14 ± 0.05 | –
355.27 K, 558.1 kPa, Fluid (supercritical or subcritical phases) | 30.53 ± 0.05 | –
355.27 K, 570.3 kPa, Fluid (supercritical or subcritical phases) | 31.19 ± 0.05 | –
355.27 K, 593.4 kPa, Fluid (supercritical or subcritical phases) | 32.6 ± 0.06 | –
355.27 K, 605.4 kPa, Fluid (supercritical or subcritical phases) | 33.29 ± 0.06 | –
355.27 K, 629.1 kPa, Fluid (supercritical or subcritical phases) | 34.75 ± 0.06 | –
355.27 K, 652.5 kPa, Fluid (supercritical or subcritical phases) | 36.04 ± 0.06 | –
355.27 K, 675.6 kPa, Fluid (supercritical or subcritical phases) | 37.5 ± 0.06 | –
355.27 K, 698.5 kPa, Fluid (supercritical or subcritical phases) | 38.93 ± 0.06 | –
355.27 K, 710.6 kPa, Fluid (supercritical or subcritical phases) | 39.6 ± 0.06 | –
355.27 K, 733.2 kPa, Fluid (supercritical or subcritical phases) | 40.98 ± 0.07 | –
355.27 K, 755.9 kPa, Fluid (supercritical or subcritical phases) | 42.45 ± 0.07 | –
355.27 K, 778.4 kPa, Fluid (supercritical or subcritical phases) | 43.82 ± 0.07 | –
355.27 K, 800.7 kPa, Fluid (supercritical or subcritical phases) | 45.25 ± 0.07 | –
355.27 K, 822.7 kPa, Fluid (supercritical or subcritical phases) | 46.65 ± 0.07 | –
355.27 K, 844.7 kPa, Fluid (supercritical or subcritical phases) | 48.08 ± 0.07 | –
355.27 K, 866.4 kPa, Fluid (supercritical or subcritical phases) | 49.39 ± 0.08 | –
355.27 K, 887.6 kPa, Fluid (supercritical or subcritical phases) | 50.79 ± 0.08 | –
355.27 K, 909.3 kPa, Fluid (supercritical or subcritical phases) | 52.17 ± 0.08 | –
355.27 K, 921.7 kPa, Fluid (supercritical or subcritical phases) | 53.01 ± 0.08 | –
355.27 K, 942.8 kPa, Fluid (supercritical or subcritical phases) | 54.34 ± 0.08 | –
355.27 K, 963 kPa, Fluid (supercritical or subcritical phases) | 55.68 ± 0.08 | –
355.27 K, 985.5 kPa, Fluid (supercritical or subcritical phases) | 57.29 ± 0.09 | –
355.27 K, 1007.7 kPa, Fluid (supercritical or subcritical phases) | 58.71 ± 0.09 | –
355.27 K, 1053.4 kPa, Fluid (supercritical or subcritical phases) | 61.79 ± 0.09 | –
355.27 K, 1076.3 kPa, Fluid (supercritical or subcritical phases) | 63.38 ± 0.09 | –
355.27 K, 1097.4 kPa, Fluid (supercritical or subcritical phases) | 64.83 ± 0.1 | –
355.27 K, 1119.1 kPa, Fluid (supercritical or subcritical phases) | 66.35 ± 0.1 | –
355.27 K, 1140.9 kPa, Fluid (supercritical or subcritical phases) | 67.89 ± 0.1 | –
355.27 K, 1162.7 kPa, Fluid (supercritical or subcritical phases) | 69.42 ± 0.1 | –
355.27 K, 1184.6 kPa, Fluid (supercritical or subcritical phases) | 70.94 ± 0.1 | –
355.27 K, 1205.7 kPa, Fluid (supercritical or subcritical phases) | 72.55 ± 0.11 | –
355.27 K, 1226.6 kPa, Fluid (supercritical or subcritical phases) | 74.03 ± 0.11 | –
355.27 K, 1248.5 kPa, Fluid (supercritical or subcritical phases) | 75.63 ± 0.11 | –
355.27 K, 1268.8 kPa, Fluid (supercritical or subcritical phases) | 77.12 ± 0.11 | –
355.27 K, 1291.7 kPa, Fluid (supercritical or subcritical phases) | 78.82 ± 0.12 | –
355.27 K, 1314.5 kPa, Fluid (supercritical or subcritical phases) | 80.53 ± 0.12 | –
355.27 K, 1336.6 kPa, Fluid (supercritical or subcritical phases) | 82.25 ± 0.12 | –
355.27 K, 1358.9 kPa, Fluid (supercritical or subcritical phases) | 83.95 ± 0.12 | –
355.27 K, 1380.8 kPa, Fluid (supercritical or subcritical phases) | 85.69 ± 0.13 | –
355.27 K, 1401.7 kPa, Fluid (supercritical or subcritical phases) | 87.28 ± 0.13 | –
355.27 K, 1423 kPa, Fluid (supercritical or subcritical phases) | 89.04 ± 0.13 | –
355.27 K, 1445 kPa, Fluid (supercritical or subcritical phases) | 90.76 ± 0.13 | –
355.27 K, 1465.4 kPa, Fluid (supercritical or subcritical phases) | 92.28 ± 0.13 | –
355.27 K, 1486.6 kPa, Fluid (supercritical or subcritical phases) | 94.07 ± 0.14 | –
355.27 K, 1509.1 kPa, Fluid (supercritical or subcritical phases) | 95.9 ± 0.14 | –
355.27 K, 1531 kPa, Fluid (supercritical or subcritical phases) | 97.69 ± 0.14 | –
355.27 K, 1552.1 kPa, Fluid (supercritical or subcritical phases) | 99.45 ± 0.15 | –
355.27 K, 1573.2 kPa, Fluid (supercritical or subcritical phases) | 101.27 ± 0.15 | –
